# Laboratory results: patent US12410153B2, “Compounds, compositions and methods” (Avalo Therapeutics, Inc., priority 2014, dated 2025)
# Where two headings read alike, the source gives them in different places.
# Experiment: Repeated once-daily oral dosing with food (Days 1-7) in healthy subjects, PK and PD
# Type: in vivo, human
# Conditions: for mean plasma concentrations higher vs young age subgroup: Day 7, 2 to 24 hours postdose; for AUC(0-t) / Cmax / Vd/F / Tmax / AUC(0-inf) / half-life: plasma, oral; for Cmax: read-out: Cmax, Mean (SD); for AUC(0-inf): read-out: AUCinf, Mean (SD); for half-life: read-out: t1/2, Mean (SD) (converted)
# Procedure: A randomized, double-blind, placebo-controlled, parallel-dose group in-patient study is conducted to investigate the pharmacodynamic (PD) effects of crystalline Form II of Compound (I) in healthy subjects.
# The study is designed as a three-part, sequential study. The sequential nature of the study ensures that a range of doses are investigated first in a young, healthy population (Part 1) before proceeding to higher doses in the healthy population and the comparator populations (intermediate age and elderly) (Parts 2 and 3). For the purposes of this study, “young” refers to a subject who is 18 to 45 years of age, “intermediate age” refers to a subject who is 46 to 64 years of age, and “elderly” refers to a subject who is 65 years of age or older.
# After a screening period of up to 21 days (Days −23 to −3), 16 healthy, young male and female subjects are randomly assigned to a dose group as shown in Table 9.
# Each parallel dose group is balanced for gender (approximately equal number of males and females). The randomized subjects are domiciled from Day −1 through Day 8. On Day −1, the subjects receive placebo tablets in the fed state and undergo ambulatory blood pressure monitoring (ABPM) and safety assessments to establish time-matched baselines. On Days 1-7, the subjects receive the study drug in the fed state and undergo safety, pharmacokinetic (PK) and pharmacodynamics (PD) assessments. On Days 8-11, follow-up PK and safety assessments are performed.
# Safety assessments include Clinician-Administered Dissociative States Scale (CADSS), Columbia-Suicide Severity Rating Scale (C-SSRS), concomitant medication, adverse event (AE) and vital sign assessments. In PK assessments, blood samples are taken and analyzed to determine PK parameters such as Cmax, Tmax, AUC0-24, and t1/2. PD assessments include ABPM, plasma brain-derived neurotrophic factor (BDNF) measurements, and Profile of Mood States (POMS) assessments.
# After a screening period of up to 21 days (Days −23 to −3), 16 subjects (8 healthy, young male and female subjects, and 8 healthy, intermediate age male and female subjects) are randomly assigned to a dose group as shown in Table 10.
# After a screening period of up to 21 days (Days −23 to −3), 16 subjects (8 healthy, young male and female subjects, and 8 healthy, elderly male and female subjects) are randomly assigned to a dose group as shown in Table 11.
# [1] = female, human, females, all doses pooled, Day 7
# [2] = females, all doses pooled, Day 1
# [3] = females, all doses pooled, Day 7
# [4] = male, human, males, all doses pooled, Day 7
smiles,measurement,setting,value
"Cc1ccc(COC(=O)N2CC[C@H](CNc3ncccn3)[C@H](F)C2)cc1 [Form II, 4-methylbenzyl (3S, 4R)-3-fluoro-4-[(pyrimidin-2-ylamino)methyl] piperidine-1-carboxylate]","Dose-Normalized Cmax, Mean (SD)","elderly, 12 mg, Day 1",29.11 (3.96) ng/mL/mg
same,"AUC% extrap, Mean (SD)","elderly, 12 mg, Day 7",9.70 (5.93) %
same,"CL/F, Mean (SD)","elderly, 12 mg, Day 7",2.79 (0.72) L/h
same,"Dose-Normalized AUCinf, Mean (SD)","elderly, 12 mg, Day 7",858.67 (325.40) h * ng/mL/mg
same,"Dose-Normalized Cmax, Mean (SD)","elderly, 12 mg, Day 7",29.11 (3.96) ng/mL/mg
same,apparent oral clearance lower vs young age group,"elderly, Day 7",approximately 30%
same,t½ higher vs young age group,"elderly, Day 7",~38%
same,mean plasma concentrations higher vs young age subgroup,elderly,~40%
same,AUC(0-t),"female, human, females, all doses pooled, Day 1, read-out: AUC0-24, Mean (SD)",2340 ng·h/mL
same,AUC(0-t),"female, human, females, all doses pooled, Day 1, read-out: AUClast, Mean (SD)",2310 ng·h/mL
same,Cmax,"female, human, females, all doses pooled, Day 1",270 ng/mL
same,Vd/F,"female, human, females, all doses pooled, Day 1, read-out: Vz/F, Mean (SD)",182 L
same,Tmax,"female, human, females, all doses pooled, Day 1, read-out: tmax, Mean (SD)",2.26 h
same,Tmax,"female, human, females, all doses pooled, Day 1, read-out: tmax, Median",2 h
same,AUC(0-t),"female, human, females, all doses pooled, Day 7, read-out: AUC0-24, Mean (SD)",4470 ng·h/mL
same,AUC(0-inf),[1],9320 ng·h/mL
same,AUC(0-t),"female, human, females, all doses pooled, Day 7, read-out: AUClast, Mean (SD)",8580 ng·h/mL
same,Cmax,[1],373 ng/mL
same,Vd/F,"female, human, females, all doses pooled, Day 7, read-out: Vss/F, Mean (SD)",105 L
same,half-life,[1],1430 min
same,Tmax,"female, human, females, all doses pooled, Day 7, read-out: tmax, Mean (SD)",2.31 h
same,Tmax,"female, human, females, all doses pooled, Day 7, read-out: tmax, Median",2 h
same,"Day 7/Day 1 Cmax Ratio, Mean (SD)","females, all doses pooled",1.38 (0.27)
same,"Observed Accumulation Index, Mean (SD)","females, all doses pooled",1.88 (0.37)
same,"Steady State Accumulation Index, Mean (SD)","females, all doses pooled",1.10 (0.15)
same,"CL/F, Mean (SD)",[2],5.79 (0.84) L/h
same,"Dose-Normalized Cmax, Mean (SD)",[2],20.59 (2.86) ng/mL/mg
same,"AUC% extrap, Mean (SD)",[3],6.76 (4.26) %
same,"CL/F, Mean (SD)",[3],3.19 (0.84) L/h
same,"Dose-Normalized AUCinf, Mean (SD)",[3],698.59 (282.19) h * ng/mL/mg
same,"Dose-Normalized Cmax, Mean (SD)",[3],27.98 (5.43) ng/mL/mg
same,effects on average nighttime SBP and DBP,"human, in vivo",smaller and less consistently observed
same,"Day 7/Day 1 Cmax Ratio, Mean (SD)","intermediate age, 12 mg",1.41 (0.17)
same,"Observed Accumulation Index, Mean (SD)","intermediate age, 12 mg",1.92 (0.25)
same,"Steady State Accumulation Index, Mean (SD)","intermediate age, 12 mg",1.13 (0.16)
same,"CL/F, Mean (SD)","intermediate age, 12 mg, Day 1",6.22 (1.34) L/h
same,"Dose-Normalized Cmax, Mean (SD)","intermediate age, 12 mg, Day 1",21.42 (4.22) ng/mL/mg
same,"AUC% extrap, Mean (SD)","intermediate age, 12 mg, Day 7",7.51 (1.85) %
same,"CL/F, Mean (SD)","intermediate age, 12 mg, Day 7",3.27 (0.80) L/h
same,"Dose-Normalized AUCinf, Mean (SD)","intermediate age, 12 mg, Day 7",675.34 (189.17) h * ng/mL/mg
same,"Dose-Normalized Cmax, Mean (SD)","intermediate age, 12 mg, Day 7",30.03 (5.40) ng/mL/mg
same,apparent oral clearance lower vs young age group,"intermediate age, Day 7",approximately 18%
same,t½ higher vs young age group,"intermediate age, Day 7",approximately 27%
same,mean plasma concentrations higher vs young age subgroup,intermediate age,approximately 20%
same,AUC(0-t),"male, human, males, all doses pooled, Day 1, read-out: AUC0-24, Mean (SD)",2210 ng·h/mL
same,AUC(0-t),"male, human, males, all doses pooled, Day 1, read-out: AUClast, Mean (SD)",2190 ng·h/mL
same,Cmax,"male, human, males, all doses pooled, Day 1",262 ng/mL
same,Vd/F,"male, human, males, all doses pooled, Day 1, read-out: Vz/F, Mean (SD)",147 L
same,Tmax,"male, human, males, all doses pooled, Day 1, read-out: tmax, Mean (SD)",2.12 h
same,Tmax,"male, human, males, all doses pooled, Day 1, read-out: tmax, Median",2 h
same,AUC(0-t),"male, human, males, all doses pooled, Day 7, read-out: AUC0-24, Mean (SD)",3750 ng·h/mL
same,AUC(0-inf),[4],6770 ng·h/mL
same,AUC(0-t),"male, human, males, all doses pooled, Day 7, read-out: AUClast, Mean (SD)",6350 ng·h/mL
same,Cmax,[4],355 ng/mL
same,Vd/F,"male, human, males, all doses pooled, Day 7, read-out: Vss/F, Mean (SD)",108 L
same,half-life,[4],1230 min
same,Tmax,"male, human, males, all doses pooled, Day 7, read-out: tmax, Mean (SD)",1.88 h
same,Tmax,"male, human, males, all doses pooled, Day 7, read-out: tmax, Median",1.75 h
same,"Day 7/Day 1 Cmax Ratio, Mean (SD)","males, all doses pooled",1.36 (0.22)
same,"Observed Accumulation Index, Mean (SD)","males, all doses pooled",1.72 (0.28)
same,"Steady State Accumulation Index, Mean (SD)","males, all doses pooled",1.15 (0.16)
same,"CL/F, Mean (SD)","males, all doses pooled, Day 1",6.19 (1.15) L/h
same,"Dose-Normalized Cmax, Mean (SD)","males, all doses pooled, Day 1",19.78 (3.09) ng/mL/mg
same,"AUC% extrap, Mean (SD)","males, all doses pooled, Day 7",6.06 (5.38) %
same,"CL/F, Mean (SD)","males, all doses pooled, Day 7",3.74 (0.83) L/h
same,"Dose-Normalized AUCinf, Mean (SD)","males, all doses pooled, Day 7",512.15 (188.98) h * ng/mL/mg
same,"Dose-Normalized Cmax, Mean (SD)","males, all doses pooled, Day 7",26.21 (3.94) ng/mL/mg
same,steady-state predose plasma concentrations achieved by,repeated daily doses,≤ 5 study day
same,"steady-state accumulation index, on average",seven days of daily dosing,1.1
same,"Observed Accumulation Index, Mean (SD)","young subjects, 8 mg",1.58 (0.19)
same,"CL/F, Mean (SD)","young subjects, 8 mg, Day 1",5.36 (0.48) L/h
same,"Dose-Normalized Cmax, Mean (SD)","young subjects, 8 mg, Day 1",22.42 (2.27) ng/mL/mg
same,"AUC% extrap, Mean (SD)","young subjects, 8 mg, Day 7",8.61 (8.27) %
same,"CL/F, Mean (SD)","young subjects, 8 mg, Day 7",3.37 (0.37) L/h
same,"Dose-Normalized AUCinf, Mean (SD)","young subjects, 8 mg, Day 7",513.73 (174.76) h * ng/mL/mg
same,"Dose-Normalized Cmax, Mean (SD)","young subjects, 8 mg, Day 7",28.00 (3.75) ng/mL/mg
same,"Day 7/Day 1 Cmax Ratio, Mean (SD)","young subjects, 12 mg",1.15 (0.18)
same,"Observed Accumulation Index, Mean (SD)","young subjects, 12 mg",1.65 (0.31)
same,"Steady State Accumulation Index, Mean (SD)","young subjects, 12 mg",1.01 (0.08)
same,"CL/F, Mean (SD)","young subjects, 12 mg, Day 1",6.46 (0.18) L/h
same,"Dose-Normalized Cmax, Mean (SD)","young subjects, 12 mg, Day 1",19.92 (2.78) ng/mL/mg
same,"AUC% extrap, Mean (SD)","young subjects, 12 mg, Day 7",4.77 (2.72) %
same,"CL/F, Mean (SD)","young subjects, 12 mg, Day 7",4.00 (0.60) L/h
same,"Dose-Normalized AUCinf, Mean (SD)","young subjects, 12 mg, Day 7",494.43 (177.79) h * ng/mL/mg
same,"Dose-Normalized Cmax, Mean (SD)","young subjects, 12 mg, Day 7",22.79 (3.67) ng/mL/mg
same,"Observed Accumulation Index, Mean (SD)","young subjects, 16 mg",1.70 (0.54)
same,"CL/F, Mean (SD)","young subjects, 16 mg, Day 1",6.12 (0.90) L/h
same,"Dose-Normalized Cmax, Mean (SD)","young subjects, 16 mg, Day 1",19.11 (1.97) ng/mL/mg
same,"AUC% extrap, Mean (SD)","young subjects, 16 mg, Day 7",5.38 (5.13) %
same,"CL/F, Mean (SD)","young subjects, 16 mg, Day 7",4.01 (1.21) L/h
same,"Dose-Normalized AUCinf, Mean (SD)","young subjects, 16 mg, Day 7",501.47 (311.57) h * ng/mL/mg
same,"Dose-Normalized Cmax, Mean (SD)","young subjects, 16 mg, Day 7",25.80 (4.07) ng/mL/mg
same,"Observed Accumulation Index, Mean (SD)","young subjects, 20 mg",1.71 (0.22)
same,"CL/F, Mean (SD)","young subjects, 20 mg, Day 1",5.90 (1.31) L/h
same,"Dose-Normalized Cmax, Mean (SD)","young subjects, 20 mg, Day 1",19.18 (2.87) ng/mL/mg
same,"AUC% extrap, Mean (SD)","young subjects, 20 mg, Day 7",2.88 (1.30) %
same,"CL/F, Mean (SD)","young subjects, 20 mg, Day 7",3.51 (0.97) L/h
same,"Dose-Normalized AUCinf, Mean (SD)","young subjects, 20 mg, Day 7",523.40 (175.33) h * ng/mL/mg
same,"Dose-Normalized Cmax, Mean (SD)","young subjects, 20 mg, Day 7",26.72 (4.88) ng/mL/mg
